Results: paper PMC3739791, “Sonic Hedgehog-Induced Histone Deacetylase Activation Is Required for Cerebellar Granule Precursor Hyperplasia in Medulloblastoma” (PLoS ONE, 2013)

Target: T1, HDAC6 (Mus musculus, UniProt Q9Z2V5)
T1 sequence (Q9Z2V5 1-1149): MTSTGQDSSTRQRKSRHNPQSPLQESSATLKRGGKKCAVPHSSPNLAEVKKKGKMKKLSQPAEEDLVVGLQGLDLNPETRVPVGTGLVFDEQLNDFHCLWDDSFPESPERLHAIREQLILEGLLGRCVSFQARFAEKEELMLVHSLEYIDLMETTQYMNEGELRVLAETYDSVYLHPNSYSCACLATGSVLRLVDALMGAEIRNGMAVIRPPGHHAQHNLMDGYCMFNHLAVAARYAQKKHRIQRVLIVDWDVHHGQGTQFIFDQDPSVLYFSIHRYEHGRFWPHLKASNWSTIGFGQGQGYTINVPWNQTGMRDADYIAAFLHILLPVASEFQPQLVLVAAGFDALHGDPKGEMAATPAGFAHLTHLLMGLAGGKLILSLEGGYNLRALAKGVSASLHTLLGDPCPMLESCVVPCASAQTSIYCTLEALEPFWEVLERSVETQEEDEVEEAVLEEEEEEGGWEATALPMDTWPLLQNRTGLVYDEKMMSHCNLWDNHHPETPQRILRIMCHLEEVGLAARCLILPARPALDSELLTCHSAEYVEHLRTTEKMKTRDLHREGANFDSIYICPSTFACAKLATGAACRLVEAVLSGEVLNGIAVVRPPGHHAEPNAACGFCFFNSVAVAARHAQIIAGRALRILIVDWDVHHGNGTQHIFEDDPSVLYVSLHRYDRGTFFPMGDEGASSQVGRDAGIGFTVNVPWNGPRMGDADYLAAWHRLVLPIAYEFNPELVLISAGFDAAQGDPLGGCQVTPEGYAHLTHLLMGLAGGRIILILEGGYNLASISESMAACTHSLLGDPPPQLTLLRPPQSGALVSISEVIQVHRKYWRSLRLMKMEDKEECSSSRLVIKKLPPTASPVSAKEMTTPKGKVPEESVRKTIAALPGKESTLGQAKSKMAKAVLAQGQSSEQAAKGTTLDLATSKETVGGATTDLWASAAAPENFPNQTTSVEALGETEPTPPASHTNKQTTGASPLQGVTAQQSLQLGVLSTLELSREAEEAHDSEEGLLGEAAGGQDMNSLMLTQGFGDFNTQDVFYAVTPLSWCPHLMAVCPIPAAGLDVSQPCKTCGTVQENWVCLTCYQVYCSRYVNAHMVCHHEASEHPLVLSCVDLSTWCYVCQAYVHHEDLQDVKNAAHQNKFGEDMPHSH
Assay: acetylated tubulin immunohistochemistry in brain sections of treated Smo/Smo mice (readout of HDAC6 inhibition in vivo)
Format: cell-based

Compound: CN1CCc2c(c3ccccc3n2Cc2ccc(C(=O)NO)cc2)C1 [Tubastatin A]
- acetylated tubulin immunohistochemistry in brain sections of treated Smo/Smo mic: although tubulin acetylation as a measure for HDAC6 inhibition was increased (Fig. S4)
